# Test results published in US4001315A, “Prostaglandin derivatives” (American Home Products Corporation, priority 1975, dated 1977).
# Key:
# [1] = Hypotension in the anesthetized dog by the intravenous route; format: in vivo
# Method: In the use of the compounds of the invention to produce hypotensive effects in warm-blooded animals, administration by the injectable route is preferred, preferably the intravenous route.
# Thus in the anesthetized dog by the intravenous route the dose to produce hypotension is from about 1 mg/kg. to about 200 mg/kg. and preferably from about 10 mg/kg. to about 100 mg/kg. Using this procedure the following results were obtained.
# [2] = system: bronchoconstricting effects of a standard dose of acetylcholine; assay: Bronchodilation by aerosol inhalation in the guinea pig (method of Rosenthale et al.); format: in vivo; parameters: dose or concentration left out as unconfirmed
# Source text: In using the compounds of the invention to produce bronchodilating effects in warm-blooded animals, they may be administered in a variety of dosage forms: oral, injectable, and aerosol inhalation. Aerosol inhalation is a preferred method because of its rapid onset of action, great potency, and specificity of action. The particular dosage to obtain the bronchodilating effect will vary with the particular compound employed, the particular animal involved, and the degree of bronchodilation desired. […] The bronchodilation produced upon aerosol inhalation can be observed by the method of Rosenthale et al., J. Pharmacol. Exp. Ther., 178, 541 (1971). Using this procedure the following result was obtained.
Compound,Δb.p. ([1]; Dose 100 mg/kg.) [mm. Hg],Percent Inhibition of the bronchoconstricting effects of a standard dose of acetylcholine [2] [%],Δb.p. ([1]; Dose 10 mg/kg.) [mm. Hg]
CCCCC[C@H](O)/C=C/[C@H]1CC[C@](C)(O)[C@@H]1C/C=C\CCCC(=O)O [7-(5α-Hydroxy-2β-[(3S)-3-Hydroxy-Trans-1-Octenyl]-5β-Methyl-1α-Cyclopentyl)-Cis-5-Heptenoic Acid],-23,,
CCCCC[C@H](O)/C=C/[C@H]1CC[C@@](C)(O)[C@@H]1C/C=C\CCCC(=O)O [7-(5β-Hydroxy-2β-[(3S)-3-Hydroxy-Trans-1-Octenyl]-5α-Methyl-1α-Cyclopentyl)-Cis-5-Heptenoic Acid],-19,,
C#CC(O)(/C=C/[C@H]1CCC(O)(C#C)[C@@H]1C/C=C\CCCC(=O)O)CCCCC (stereo partly drawn) [7-[(5RS)-5-Ethynyl-2β-((3RS)-3-Ethynyl-3-Hydroxy-Trans-1-Octenyl)-5-Hydroxy-1α-Cyclopentyl]-Cis-5-Heptenoic Acid],-26,48,
C#CC1(O)CC[C@H](/C=C/[C@@H](O)CCCCC)[C@H]1C/C=C\CCCC(=O)O (stereo partly drawn) [7-[(5RS)-5-Ethynyl-5-Hydroxy-2β-((3S)-3-Hydroxy-Trans-1-Octenyl)-1α-Cyclopentyl]-Cis-5-Heptenoic Acid],,,-40
